The target in assay [1] is T1, Farnesyl pyrophosphate synthase (Homo sapiens) (UniProt P14324).
T1 sequence (whole entry): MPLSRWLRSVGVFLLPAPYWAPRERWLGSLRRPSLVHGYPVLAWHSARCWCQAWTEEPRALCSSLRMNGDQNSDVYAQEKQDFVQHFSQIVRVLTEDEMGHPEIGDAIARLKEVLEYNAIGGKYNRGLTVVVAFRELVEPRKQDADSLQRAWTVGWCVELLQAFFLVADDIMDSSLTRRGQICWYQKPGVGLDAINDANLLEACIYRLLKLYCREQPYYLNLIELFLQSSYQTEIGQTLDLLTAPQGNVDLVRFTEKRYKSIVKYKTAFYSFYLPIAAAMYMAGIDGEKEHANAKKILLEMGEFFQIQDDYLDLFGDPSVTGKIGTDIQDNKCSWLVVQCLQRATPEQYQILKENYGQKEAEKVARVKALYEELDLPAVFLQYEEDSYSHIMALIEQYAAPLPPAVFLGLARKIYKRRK
The experiment in a line: Inhibition of recombinant human C-terminal His6-tagged FPPS expressed in Escherichia coli BL21 at 1 to 10 uM using DMAPP and IPP as substrates pretreated for 15 mins followed by substrates addition and measured after 1 hr by colorimetric method relative to control.

Assay [2] deals with T2, Geranylgeranyl pyrophosphate synthase (Homo sapiens) (UniProt O95749).
T2 sequence (whole entry): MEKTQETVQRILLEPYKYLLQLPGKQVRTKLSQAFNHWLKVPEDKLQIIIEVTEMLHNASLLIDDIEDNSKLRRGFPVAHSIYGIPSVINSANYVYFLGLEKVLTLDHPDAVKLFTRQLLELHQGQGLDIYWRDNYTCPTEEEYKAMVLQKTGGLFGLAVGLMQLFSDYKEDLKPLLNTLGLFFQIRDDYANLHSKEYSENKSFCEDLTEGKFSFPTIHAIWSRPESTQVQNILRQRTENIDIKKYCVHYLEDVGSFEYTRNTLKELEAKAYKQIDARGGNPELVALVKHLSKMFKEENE
The experiment in a line: Inhibition of recombinant human C-terminal His6-tagged GGPPS expressed in Escherichia coli BL21 at 1 to 10 uM using IPP and FPP as substrates pretreated for 15 mins followed by substrates addition and measured after 1 hr by colorimetric method relative to control.

The test system of assay [3] is PC-3. The experiment in a line: Antiproliferative activity against human PC3 cells assessed as reduction in cell proliferation at 500 uM after 72 hrs by crystal violet staining based assay. Format: functional.
The test system of assay [4] is MG-63. The experiment in a line: Antiproliferative activity against human MG63 cells assessed as reduction in cell proliferation at 500 uM after 72 hrs by crystal violet staining based assay. It is filed as functional.
Assay [5] addresses T1, Farnesyl pyrophosphate synthase (Homo sapiens). Put plainly: Inhibition of recombinant human C-terminal His6-tagged FPPS expressed in Escherichia coli BL21 at 100 uM using DMAPP and IPP as substrates pretreated for 15 mins followed by substrates addition and measured after 1 hr by colorimetric method relative to control.
The test system of assay [6] is PC-3. Put plainly: Antiproliferative activity against human PC3 cells assessed as change in cell proliferation at 100 uM after 72 hrs by crystal violet staining based assay relative to control. Format: functional.
The subject of assay [7] is MG-63. The experiment in a line: Antiproliferative activity against human MG63 cells assessed as change in cell proliferation at 100 uM after 72 hrs by crystal violet staining based assay relative to control. Format: functional.
The test system of assay [8] is J774.A1. Put plainly: Antiproliferative activity against mouse J774A.1 cells assessed as reduction in cell proliferation at 500 uM after 72 hrs by crystal violet staining based assay. It is filed as functional.
Assay [9] concerns J774.A1. The experiment in a line: Antiproliferative activity against mouse J774A.1 cells assessed as change in cell proliferation at 100 uM after 72 hrs by crystal violet staining based assay relative to control. Format: functional.
Assay [10] concerns RAW264.7. The experiment in a line: Antiproliferative activity against mouse RAW264.7 cells assessed as change in cell proliferation at 100 uM after 72 hrs by crystal violet staining based assay relative to control. It is filed as functional.
The subject of assay [11] is RAW264.7. The experiment in a line: Antiproliferative activity against mouse RAW264.7 cells assessed as reduction in cell proliferation at 500 uM after 72 hrs by crystal violet staining based assay. It is filed as functional.

Inhibition and Activity data for 8 molecules are collected here from ChEMBL document CHEMBL4265921, “Novel bisphosphonates with antiresorptive effect in bone mineralization and osteoclastogenesis” (Eur J Med Chem, 2018).

The source made the active and inactive calls. The rule behind the calls is not given here.

With `O=P(O)(O)C(O)(CSc1nc2ccccc2[nH]1)P(=O)(O)O`, the inhibition in assay [1] was 68 to 79%; in [2], 68 to 79%; in [5], 24%. For the same molecule, the result in assay [3] and in assay [4] was inactive.
Take `O=P(O)(O)C(O)(CCNc1ncccn1)P(=O)(O)O`: the inhibition in assay [1] was 68 to 79%; in assay [2], 68 to 79%; in assay [5], 54%. Besides, the result in [3], in assay [4], in assay [8] and in assay [11] was inactive. Besides, the Activity is listed as -49.419% in assay [6], -18.291% in assay [7], -3.329% in [9] and -18.897% in assay [10].
Regarding `O=P(O)(O)C(O)(CCCCc1ncnc2ccccc12)P(=O)(O)O`, the inhibition in assay [1] was 68 to 79%; in [2], 68 to 79%; in assay [5], 29%. The outcome in assay [3], in [4], in assay [8] and in assay [11] was inactive. Moreover, the Activity in assay [6] is recorded as -10.283%; in assay [7], 24.024%; in assay [9], -15.466%; in assay [10], -29.565%.
In the case of `O=P(O)(O)C(O)(CCCNc1ncccn1)P(=O)(O)O`, the inhibition in [1] is 68 to 79%; in [2], 68 to 79%; in assay [5], 43%. The result in assay [3], in assay [4], in assay [8] and in [11] was inactive. The Activity in assay [6] is given as -45.479%; in assay [7] it was -3.759%; in assay [9] it was -37.544%; in assay [10], -44.249%.
Regarding `O=P(O)(O)C(O)(CSc1nc2ccccc2s1)P(=O)(O)O`, the inhibition was 68 to 79% in assay [1], 68 to 79% in assay [2] and 26% in [5]. Also, the outcome in [3] and in assay [4] was inactive.
For `O=P(O)(O)C(O)(CCCNc1ncc2ccccc2n1)P(=O)(O)O`, the inhibition in [1] was 68 to 79%; in assay [2], 68 to 79%; in [5], 30%. In addition, the result in assay [3], in assay [4], in [8] and in assay [11] was inactive. The Activity in [6] was -19.628%; in assay [7], 5.921%; in assay [9], -58.954%; in [10], -24.106%.
In the case of `O=P(O)(O)C(O)(CCCCc1ncc2ccccc2n1)P(=O)(O)O`, the inhibition was 68 to 79% in assay [1], 68 to 79% in [2] and 48% in [5]. The outcome in assay [3], in assay [4], in [8] and in assay [11] was inactive. Moreover, the Activity in [6] is -16.093%; in assay [7], -2.74%; in assay [9], -47.396%; in assay [10] it was -50.127%.
Regarding `O=P(O)(O)C(O)(CNc1nc2ccccc2s1)P(=O)(O)O`, the inhibition in assay [1] and in assay [2] was 68 to 79% each time. Moreover, the outcome in assay [3] and in assay [4] was inactive. The inhibition result in assay [5] was “inactive”.

Usually inhibition stands for the percentage by which the read-out fell short of the control.
